The source made the active and inactive calls.
Legend:
[1] = molecular target: T1, Corticotropin-releasing factor receptor 2/Corticotropin-releasing factor-binding protein (Homo sapiens, UniProt P24387+Q13324); assay: activators of CRF receptor 2 with binding protein – uHTS hits, confirmation (AID 602473); assay type: functional; details: read-out: EC50_Mean
T1 sequence (Q13324 whole entry): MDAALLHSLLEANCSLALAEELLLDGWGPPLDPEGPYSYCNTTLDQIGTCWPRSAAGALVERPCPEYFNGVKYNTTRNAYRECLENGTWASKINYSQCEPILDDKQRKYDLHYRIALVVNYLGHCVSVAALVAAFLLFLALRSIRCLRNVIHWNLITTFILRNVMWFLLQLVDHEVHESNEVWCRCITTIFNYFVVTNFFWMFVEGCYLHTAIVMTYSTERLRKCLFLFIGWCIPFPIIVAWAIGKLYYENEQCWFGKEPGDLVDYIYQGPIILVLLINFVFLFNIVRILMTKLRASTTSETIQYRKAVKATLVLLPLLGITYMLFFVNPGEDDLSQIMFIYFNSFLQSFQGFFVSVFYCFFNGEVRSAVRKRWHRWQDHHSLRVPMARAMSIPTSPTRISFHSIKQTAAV
T1 sequence (P24387 whole entry): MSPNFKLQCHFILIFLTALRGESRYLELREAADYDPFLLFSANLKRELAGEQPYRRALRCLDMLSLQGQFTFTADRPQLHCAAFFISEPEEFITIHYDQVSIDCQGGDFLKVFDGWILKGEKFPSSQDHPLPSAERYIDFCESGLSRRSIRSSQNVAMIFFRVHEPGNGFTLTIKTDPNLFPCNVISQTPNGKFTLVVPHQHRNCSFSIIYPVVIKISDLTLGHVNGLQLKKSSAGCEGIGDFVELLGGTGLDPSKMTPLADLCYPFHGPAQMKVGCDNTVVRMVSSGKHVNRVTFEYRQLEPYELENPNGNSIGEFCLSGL

[2] = alpha-synuclein stem-loop luciferase translation blockers – H4 neuroglioma cells, luminescence, confirmation (AID 1988); assay type: functional, cell-based
[3] = Luminescence Cell-Based Dose Response HTS to Identify Inhibitors of 5'UTR Stem-Loop Driven Prion Protein mRNA Translation in H4 Neuroglioblastoma Cells. [Related pubchem assays: 1827 (Project Summary), 1813 (Primary HTS)]; assay type: functional
[4] = luciferase reporter signal suppression in cells – H4 neuroglioma cells, luminescence, dose response (AID 1990); assay type: functional, cell-based
Cytochrome P450 2C19 = Cytochrome P450 2C19 (Homo sapiens, UniProt P33261); assay: Cytochrome panel assay with activity outcomes. Panel member name: p450-cyp2c19 Compounds with AC50 equal or less than 10 uM are considered active; assay type: functional
Cytochrome P450 2C19, sequence (P33261 whole entry): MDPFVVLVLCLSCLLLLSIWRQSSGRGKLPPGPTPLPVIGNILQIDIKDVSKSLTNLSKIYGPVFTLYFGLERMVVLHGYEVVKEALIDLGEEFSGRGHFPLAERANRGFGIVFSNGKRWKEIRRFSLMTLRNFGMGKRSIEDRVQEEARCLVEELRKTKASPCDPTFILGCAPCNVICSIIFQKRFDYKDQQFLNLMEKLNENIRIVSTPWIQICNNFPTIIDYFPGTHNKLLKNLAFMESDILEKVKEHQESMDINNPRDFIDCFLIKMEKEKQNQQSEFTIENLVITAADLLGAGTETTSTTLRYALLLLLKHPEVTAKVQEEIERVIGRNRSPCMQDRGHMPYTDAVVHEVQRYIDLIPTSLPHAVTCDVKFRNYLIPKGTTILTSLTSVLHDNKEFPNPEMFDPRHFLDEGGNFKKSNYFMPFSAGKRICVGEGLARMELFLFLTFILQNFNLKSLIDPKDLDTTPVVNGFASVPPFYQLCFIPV

Cytochrome P450 2C9 = Cytochrome P450 2C9 (Homo sapiens, UniProt P11712)
Cytochrome P450 2C9, sequence (P11712 whole entry): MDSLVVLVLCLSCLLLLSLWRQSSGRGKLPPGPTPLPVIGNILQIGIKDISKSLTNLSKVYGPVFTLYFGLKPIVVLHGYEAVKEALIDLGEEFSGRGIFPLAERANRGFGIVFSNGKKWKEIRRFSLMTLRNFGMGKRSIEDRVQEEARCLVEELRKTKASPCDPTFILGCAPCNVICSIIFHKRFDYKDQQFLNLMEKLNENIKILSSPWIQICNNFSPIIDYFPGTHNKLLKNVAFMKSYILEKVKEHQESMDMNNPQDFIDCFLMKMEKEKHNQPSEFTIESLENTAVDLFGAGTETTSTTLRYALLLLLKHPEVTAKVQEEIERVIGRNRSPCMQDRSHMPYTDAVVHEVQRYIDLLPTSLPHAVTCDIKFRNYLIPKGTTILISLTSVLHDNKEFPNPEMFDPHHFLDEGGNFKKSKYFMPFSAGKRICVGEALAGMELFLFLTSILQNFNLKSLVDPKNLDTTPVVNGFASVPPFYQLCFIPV

Cytochrome P450 3A4 = Cytochrome P450 3A4 (Homo sapiens, UniProt P08684);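 note: CYP3A4 tested as one member of a cytochrome P450 panel screen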
Cytochrome P450 3A4, sequence (P08684 whole entry): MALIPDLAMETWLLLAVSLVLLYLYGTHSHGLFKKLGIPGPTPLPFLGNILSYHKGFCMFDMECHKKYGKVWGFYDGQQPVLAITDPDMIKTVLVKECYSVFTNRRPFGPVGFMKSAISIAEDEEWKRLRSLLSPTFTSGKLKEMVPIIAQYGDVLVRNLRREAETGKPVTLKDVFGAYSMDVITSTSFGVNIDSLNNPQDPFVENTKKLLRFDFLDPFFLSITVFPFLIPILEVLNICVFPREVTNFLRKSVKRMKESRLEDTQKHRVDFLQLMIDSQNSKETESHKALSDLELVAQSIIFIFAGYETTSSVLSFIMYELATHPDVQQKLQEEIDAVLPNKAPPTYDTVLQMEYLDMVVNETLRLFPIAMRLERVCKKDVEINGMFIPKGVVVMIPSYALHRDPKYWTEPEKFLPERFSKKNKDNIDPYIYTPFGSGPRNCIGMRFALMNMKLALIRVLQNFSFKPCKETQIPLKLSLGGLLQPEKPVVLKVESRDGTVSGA

For CCCNS(=O)(=O)c1ccc(Oc2ncc(C(F)(F)F)cc2Cl)cc1, the EC50 [1] was > 53 µM (inactive).

With C/C(=N\OCc1cccc(C(=O)O)c1)c1ccc(Cl)cc1 the EC50 [2] was 4.77 µM (active), the EC50 [3] was 0.254 µM (active) and the EC50 [4] was 7.12 µM (inconclusive).

For CCc1ccc(NC(=O)C(CC)c2ccccc2)cc1 (configuration not stated), the EC50 [1] was 10.4 µM (active).

In the case of COC(=O)c1c(C)oc2ccc(N(C(=O)c3ccncc3)S(=O)(=O)c3ccc(C)cc3)cc12, the EC50 [2] is reported as 8.07 µM (active), the EC50 [3] is reported as 10.9 µM (active) and the EC50 [4] is reported as > 120 µM (not active).

In the case of O=C(NCC(c1ccco1)N1CCCC1)c1cc2cc(Cl)ccc2o1 (configuration not stated), the EC50 [1] is reported as > 53 µM (inactive).

With Cc1cccc(/C=C2\CCC(=C3SCCCS3)C2=O)c1 the EC50 [2] was 8.14 µM (active), the EC50 [3] was 9.28 µM (active) and the EC50 [4] was 5.22 µM (active).

In the case of Cc1ccc(SCN2CCCCC2)cc1.O=C(Cl)c1ccc([N+](=O)[O-])cc1, the AC50 (Cytochrome P450 2C19; read-out: AC50) is reported as 2.51 µM (inconclusive).

For COc1cccc(NC(=O)Cc2c(C(=O)O)[nH]c3ccccc23)c1, the AC50 (Cytochrome P450 2C9) was 22.4 µM (inconclusive) and the AC50 (Cytochrome P450 3A4) was 15.8 µM (inconclusive).

For CC(CNC(=O)c1ccc(NC2=NC3CS(=O)(=O)CC3S2)cc1)c1ccccc1 (configuration not stated), the EC50 [1] was > 53 µM (inactive).

With CCCCCC(=O)Nc1cc2nc(O)cc(COC)c2cc1C the AC50 (Cytochrome P450 2C9) was 10 µM (inconclusive).

For COC(=O)[C@@H](NC(=O)Nc1ccc(C(C)=O)cc1)C(C)C, the AC50 (Cytochrome P450 2C9) was 3.55 µM (inconclusive).

In the case of COc1ccc(NC(=O)c2cc(S(=O)(=O)N3CCCCC3)c[nH]2)cc1Cl, the EC50 [2] is reported as > 120 µM (not active), the EC50 [3] is reported as 18.4 µM (active) and the EC50 [4] is reported as 23.7 µM (active).

In the case of Oc1c(CN2CCOCC2)ccc(CN2CCOCC2)c1O, the AC50 (Cytochrome P450 2C9) is reported as 7.94 µM (inconclusive).

With CCCCC#Cc1nc(N)c2ncn([C@@H]3O[C@@H](C(=O)NCC)[C@H](O)[C@@H]3O)c2n1 the AC50 (Cytochrome P450 2C9) was 25.1 µM (inconclusive), the AC50 (Cytochrome P450 3A4) was 15.8 µM (inconclusive) and the AC50 (Cytochrome P450 2C19; read-out: AC50) was 39.8 µM (inconclusive).

In the case of O=c1cnc2cnc(Nc3ccccc3)nc2n1C1CC1, the AC50 (Cytochrome P450 2C9) is reported as 31.6 µM (inconclusive), the AC50 (Cytochrome P450 3A4) is reported as 25.1 µM (inconclusive) and the AC50 (Cytochrome P450 2C19; read-out: AC50) is reported as 20 µM (inconclusive).

For CN(C)CCNC(=O)C(=O)NCC1OCCCN1S(=O)(=O)c1cccs1 (configuration not stated), the EC50 [2] was > 120 µM (not active), the EC50 [3] was > 120 µM (not active) and the EC50 [4] was > 120 µM (not active).

For COc1ccc(-n2c(SCC(=O)Nc3ccccc3)nnc2-c2ccoc2C)cc1, the EC50 [2] was 15.9 µM (active), the EC50 [3] was 29.7 µM (active) and the EC50 [4] was > 120 µM (not active).

In the case of Cc1cc(C)c(OCC(=O)Nc2ccccc2N2CCOCC2)c(C)c1, the EC50 [1] is reported as > 53 µM (inactive).

In the case of c1csc(CNc2ncncc2-c2ccoc2)c1, the AC50 (Cytochrome P450 2C9) is reported as 0.794 µM (inconclusive).

In the case of O=C(Nc1cc(C(F)(F)F)ccc1Cl)C(Sc1cccc[n+]1[O-])c1ccccc1 (configuration not stated), the EC50 [1] is reported as > 53 µM (inactive).

For CC(=O)Nc1c(C(=O)N2CCOCC2)cnn1-c1ccc(C)c(C)c1, the AC50 (Cytochrome P450 3A4) was 3.98 µM (inconclusive) and the AC50 (Cytochrome P450 2C19) was “inconclusive”.

For Cc1cc2cccc(C)c2nc1SCC(=O)N(C)c1nc(-c2ccccc2)cs1, the AC50 (Cytochrome P450 2C9) was 2.82 µM (inconclusive).

In the case of COc1ccc([N+](=O)[O-])cc1COc1ccc2c(-c3ccccc3)cc(=O)oc2c1, the AC50 (Cytochrome P450 2C19; read-out: AC50) is reported as 3.55 µM (inconclusive).

With CCOc1cc2[nH]c(=O)n(CCC(=O)NCc3ccc(OC)cc3)c(=O)c2cc1OCC the AC50 (Cytochrome P450 2C9) was 2 µM (inconclusive).

For COC(=O)N1CCC2(CCCN(Cc3ccc(C#N)cc3)C2)CC1, the AC50 (Cytochrome P450 3A4) was 15.8 µM (inconclusive) and the AC50 (Cytochrome P450 2C19; read-out: AC50) was 7.94 µM (inconclusive).

In the case of CCOc1ccc(C(C)NC(=S)NCc2ccc(Cl)cc2)cc1 (configuration not stated), the EC50 [1] is reported as 14.6 µM (active).

For O=C1c2ccccc2C(=O)N1CC1CCCO1 (configuration not stated), the AC50 (Cytochrome P450 2C9) was 0.398 µM (inconclusive) and the AC50 (Cytochrome P450 2C19; read-out: AC50) was 0.355 µM (inconclusive).

For CNc1ncncc1-c1ccccc1CN(C)C, the AC50 (Cytochrome P450 2C19) was “inconclusive”.

For Cc1ccc(NC(=O)CN2CCC(NC(=O)c3cccc(F)c3)CC2)cc1C, the EC50 [2] was > 120 µM (not active), the EC50 [3] was 21.6 µM (active) and the EC50 [4] was > 120 µM (not active).

For COc1ccc(CNC(=O)[C@H]2C[C@@H]2[C@H](NP(=O)(c2ccccc2)c2ccccc2)c2ccccc2)cc1OC, the AC50 (Cytochrome P450 2C9) was 25.1 µM (inconclusive).
